Measured values reported in ChEMBL document CHEMBL6096683, “Novel Orthosteric/Allosteric Ligands of Cannabinoid Receptors: An Unexpected Pharmacological Profile” (J Med Chem, 2025).
Activity calls are given as the source filed them. The rule behind the calls is not given here.

Assays:
Cannabinoid receptor 1 [1] = target: T1, Cannabinoid receptor 1 (Homo sapiens, UniProt P21554); assay: Agonist activity at human CB1 receptor expressed in CHO cells assessed as inhibition of forskolin-induced cAMP production incubated for 90 mins in presence of GAT211 ligand by HitHunter assay; type: functional, cell-based
Cannabinoid receptor 1 [2] = target: T1, Cannabinoid receptor 1; assay: Displacement of [3H]CP55940 from human CB1 receptor expressed in CHO cell membrane at 0.001 to 10 uM incubated for 2 hrs relative to control; type: cell membranes; conditions: dose 0.001-10 µM
Cannabinoid receptor 1 [3] = target: T1, Cannabinoid receptor 1; assay: Agonist activity at human CB1 receptor expressed in CHO cells assessed as inhibition of forskolin-induced cAMP production at 100 nM incubated for 90 mins in presence of GAT211 ligand by HitHunter assay relative to control; type: functional, cell-based
Cannabinoid receptor 1 [4] = target: T1, Cannabinoid receptor 1; assay: Displacement of [3H]CP55940 from human CB1 receptor expressed in CHO cell membrane incubated for 2 hrs; type: cell membranes
Cannabinoid receptor 1 [5] = target: T1, Cannabinoid receptor 1; assay: Agonist activity at human CB1 receptor expressed in CHO cells assessed as inhibition of forskolin-induced cAMP production at 100 nM incubated for 90 mins in presence of CP55940 ligand by HitHunter assay relative to control; type: functional, cell-based; conditions: filed as agonist
Cannabinoid receptor 2 [6] = target: T2, Cannabinoid receptor 2 (Homo sapiens, UniProt P34972); assay: Agonist activity at human CB2 receptor expressed in CHO cells assessed as inhibition of forskolin-induced cAMP production incubated for 90 mins in presence of CP55940 ligand by HitHunter assay; type: functional, cell-based
Cannabinoid receptor 1 [7] = target: T1, Cannabinoid receptor 1; assay: Agonist activity at human CB1 receptor expressed in CHO cells assessed as inhibition of forskolin-induced cAMP production at 100 nM incubated for 90 mins in presence of FM6b ligand by HitHunter assay relative to control; type: functional, cell-based; conditions: filed as agonist
Cannabinoid receptor 2 [8] = target: T2, Cannabinoid receptor 2; assay: Displacement of [3H]CP55940 from human CB2 receptor expressed in CHO cell membrane incubated for 2 hrs; type: cell membranes
Cannabinoid receptor 2 [9] = target: T2, Cannabinoid receptor 2; assay: Displacement of [3H]CP55940 from human CB2 receptor expressed in CHO cell membrane at 0.001 to 10 uM incubated for 2 hrs relative to control; type: cell membranes; conditions: dose 0.001-10 µM
Cannabinoid receptor 1 [10] = target: T1, Cannabinoid receptor 1; assay: Agonist activity at human CB1 receptor expressed in CHO cells assessed as inhibition of forskolin-induced cAMP production incubated for 90 mins in presence of FM6b ligand by HitHunter assay; type: functional, cell-based
Cannabinoid receptor 2 [11] = target: T2, Cannabinoid receptor 2; assay: Agonist activity at human CB2 receptor expressed in CHO cells assessed as inhibition of forskolin-induced cAMP production at 100 nM incubated for 90 mins in presence of CP55940 ligand by HitHunter assay relative to control; type: functional, cell-based; conditions: filed as agonist
Cannabinoid receptor 1 [12] = target: T1, Cannabinoid receptor 1; assay: Agonist activity at human CB1 receptor expressed in CHO cells assessed as inhibition of forskolin-induced cAMP production incubated for 90 mins in presence of CP55940 ligand by HitHunter assay; type: functional, cell-based
Cannabinoid receptor 2 [13] = target: T2, Cannabinoid receptor 2; assay: Agonist activity at human CB2 receptor expressed in CHO cells assessed as inhibition of forskolin-induced cAMP production at 100 nM incubated for 90 mins in presence of FM6b ligand by HitHunter assay relative to control; type: functional, cell-based; conditions: filed as agonist
Cannabinoid receptor 2 [14] = target: T2, Cannabinoid receptor 2; assay: Agonist activity at human CB2 receptor expressed in CHO cells assessed as inhibition of forskolin-induced cAMP production incubated for 90 mins in presence of FM6b ligand by HitHunter assay; type: functional, cell-based
Cannabinoid receptor 2 [15] = target: T2, Cannabinoid receptor 2; assay: Agonist activity at human CB2 receptor expressed in CHO cells assessed as inhibition of forskolin-induced cAMP production at 10 uM incubated for 90 mins by HitHunter assay; type: functional, cell-based; conditions: filed as agonist
Cannabinoid receptor 1 [16] = target: T1, Cannabinoid receptor 1; assay: Displacement of [3H]CP55940 from human CB1 receptor expressed in CHO cells at 0.001 to 10 uM; type: cell-based; conditions: filed as positive allosteric modulator, dose 0.001-10 µM
Cannabinoid receptor 2 [17] = target: T2, Cannabinoid receptor 2; assay: Agonist activity at human CB2 receptor expressed in CHO cells assessed as inhibition of forskolin-induced cAMP production at 0.001 to 10 uM incubated for 90 mins by HitHunter assay; type: functional, cell-based; conditions: dose 0.001-10 µM
Cannabinoid receptor 1 [18] = target: T1, Cannabinoid receptor 1; assay: Positive allosteric modulation at human CB1 receptor expressed in CHO cells assessed as inhibition of forskolin-induced cAMP production incubated for 90 mins in presence of FM6b by HitHunter assay relative to control; type: functional, cell-based; conditions: filed as positive allosteric modulator
HepG2 [19] = assay: Induction of lipid accumulation in human HepG2 cells assessed as increase in lipolysis at 0.1 to 25 uM incubated for 24 hrs by Oil Red O staining based analysis; type: functional, cell-based; conditions: dose 0.1-25 µM
Cannabinoid receptor 2 [20] = target: T2, Cannabinoid receptor 2; assay: Displacement of [3H]CP55940 from human CB2 receptor expressed in CHO cells upto 1 uM; type: cell-based
HepG2 [21] = assay: Anti-steatosis activity against oleate/palmitate-induced human HepG2 cells assessed as induction of lipolysis at 25 uM incubated for 24 hrs; type: functional, cell-based
Cannabinoid receptor 2 [22] = target: T2, Cannabinoid receptor 2; assay: Positive allosteric modulation at human CB2 receptor expressed in CHO cells assessed as inhibition of forskolin-induced cAMP production incubated for 90 mins in presence of FM6b by HitHunter assay relative to control; type: functional, cell-based; conditions: filed as positive allosteric modulator
Cannabinoid receptor 2 [23] = target: T2, Cannabinoid receptor 2; assay: Positive allosteric modulation at human CB2 receptor expressed in CHO cells assessed as inhibition of forskolin-induced cAMP production incubated for 90 mins in presence of CP55940 ligand by HitHunter assay relative to control; type: functional, cell-based; conditions: filed as positive allosteric modulator
Cannabinoid receptor 2 [24] = target: T2, Cannabinoid receptor 2; assay: Positive allosteric modulation at human CB2 receptor expressed in CHO cells assessed as inhibition of forskolin-induced cAMP production incubated for 90 mins in presence of FM6b by HitHunter assay; type: functional, cell-based
Cannabinoid receptor 1 [25] = target: T1, Cannabinoid receptor 1; assay: Positive allosteric modulation at human CB1 receptor expressed in CHO cells assessed as inhibition of forskolin-induced cAMP production incubated for 90 mins by HitHunter assay; type: functional, cell-based; conditions: filed as positive allosteric modulator
Cannabinoid receptor 2 [26] = target: T2, Cannabinoid receptor 2; assay: Positive allosteric modulation at human CB2 receptor expressed in CHO cells assessed as inhibition of forskolin-induced cAMP production incubated for 90 mins in presence of CP55940 ligand by HitHunter assay; type: functional, cell-based
Cannabinoid receptor 2 [27] = target: T2, Cannabinoid receptor 2; assay: Displacement of [3H]CP55940 from human CB2 receptor expressed in CHO cells at 10 uM; type: cell-based; conditions: filed as positive allosteric modulator
HepG2 [28] = assay: Anti-steatosis activity against oleate/palmitate-induced human HepG2 cells assessed as reduction of lipid accumulation incubated for 24 hrs; type: functional, cell-based; conditions: dose 0.1-25 µM
HepG2 [29] = assay: Induction of lipid accumulation in human HepG2 cells at 0.1 to 25 uM incubated for 24 hrs by Oil Red O staining based analysis; type: functional, cell-based; conditions: dose 0.1-25 µM
BEND3 [30] = assay: Disruption of monolayer integrity in mouse BEND3 cells assessed as change in TEER modulation after 3 hrs; type: functional, cell-based
Cannabinoid receptor 1 [31] = target: T1, Cannabinoid receptor 1; assay: Agonist activity at human CB1 receptor expressed in CHO cells assessed as inhibition of forskolin-induced cAMP production at 1 nM incubated for 90 mins in presence of CP55940 ligand by HitHunter assay relative to control; type: functional, cell-based; conditions: filed as agonist
BEND3 [32] = assay: Disruption of monolayer integrity in mouse BEND3 cells assessed as change in TEER modulation at 180 mins; type: functional, cell-based
BEND3 [33] = assay: Disruption of monolayer integrity in mouse BEND3 cells assessed as change in TEER modulation at 135 mins; type: functional, cell-based
HepG2 [34] = assay: Cytotoxicity against human HepG2 cells at 0.1 to 100 uM incubated for 24 hrs by MTT assay; type: functional, cell-based; conditions: dose 0.1-100 µM
[35] = Cytotoxicity against mouse BEND3 cells assessed as cell viability at 30 uM incubated for 24 hrs by WST-1 assay; type: functional; conditions: read-out: Activity
HepG2 [36] = assay: Anti-steatosis activity against oleate/palmitate-induced human HepG2 cells assessed as induction of lipolysis at 0.1 to 25 uM incubated for 24 hrs; type: functional, cell-based; conditions: dose 0.1-25 µM

T2 sequence (P34972 whole entry): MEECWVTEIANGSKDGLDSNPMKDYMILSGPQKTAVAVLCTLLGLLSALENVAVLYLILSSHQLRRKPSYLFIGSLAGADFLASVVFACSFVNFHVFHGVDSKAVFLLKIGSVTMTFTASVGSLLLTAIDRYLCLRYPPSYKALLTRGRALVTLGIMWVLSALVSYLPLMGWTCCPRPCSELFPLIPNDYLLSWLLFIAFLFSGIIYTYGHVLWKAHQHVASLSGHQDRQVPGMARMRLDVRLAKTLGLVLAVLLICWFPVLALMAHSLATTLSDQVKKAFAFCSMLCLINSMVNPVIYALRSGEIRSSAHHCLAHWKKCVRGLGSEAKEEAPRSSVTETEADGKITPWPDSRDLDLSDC
T1 sequence (P21554 whole entry): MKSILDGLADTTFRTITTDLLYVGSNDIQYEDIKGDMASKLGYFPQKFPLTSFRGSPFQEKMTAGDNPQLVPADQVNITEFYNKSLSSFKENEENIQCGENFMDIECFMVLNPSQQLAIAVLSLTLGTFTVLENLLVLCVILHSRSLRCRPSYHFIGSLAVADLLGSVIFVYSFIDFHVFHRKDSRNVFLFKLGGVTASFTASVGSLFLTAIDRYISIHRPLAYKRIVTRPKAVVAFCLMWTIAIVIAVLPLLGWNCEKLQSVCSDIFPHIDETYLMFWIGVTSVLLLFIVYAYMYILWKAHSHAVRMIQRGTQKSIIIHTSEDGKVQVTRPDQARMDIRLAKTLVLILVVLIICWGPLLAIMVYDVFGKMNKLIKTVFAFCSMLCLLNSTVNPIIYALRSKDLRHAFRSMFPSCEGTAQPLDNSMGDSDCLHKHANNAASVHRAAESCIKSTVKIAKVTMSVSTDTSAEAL

Row | Compound | EC50 (Cannabinoid receptor 1 [1]) | Emax (Cannabinoid receptor 1 [2]; filed as agonist) | Emax (Cannabinoid receptor 1 [3]) | IC50 (Cannabinoid receptor 1 [4]) | Emax (Cannabinoid receptor 1 [5]) | EC50 (Cannabinoid receptor 2 [6]) | Emax (Cannabinoid receptor 1 [7]) | IC50 (Cannabinoid receptor 2 [8]; read-out: IC50) | Emax (Cannabinoid receptor 2 [9]; filed as agonist) | EC50 (Cannabinoid receptor 1 [10]) | Emax (Cannabinoid receptor 2 [11]) | EC50 (Cannabinoid receptor 1 [12]) | Emax (Cannabinoid receptor 2 [13]) | EC50 (Cannabinoid receptor 2 [14]) | Activity (Cannabinoid receptor 2 [15]) | Emax (Cannabinoid receptor 1 [2]) | Activity (HepG2 [19]) | IC50 (Cannabinoid receptor 2 [8]; read-out: pIC50 (converted)) | further results
1 | Cc1c(Br)cc(C(=O)NC2CCCCCC2)c(=O)n1CCCn1cc(CCC(=O)NCC(c2ccccc2)c2c(-c3ccccc3)[nH]c3ccccc23)nn1 (stereo not given) | 2 nM | 329% | 26% | 31.6 nM | 61% | 10 nM | 150% | 6.3 nM | 130% | 2510 nM | 123% | 7.94 nM | 77% | 316 nM | Active |  |  |  | 
2 | Cc1c(Br)cc(C(=O)NC2CCCCCC2)c(=O)n1CCCn1cc(CCCC(=O)NCC(c2ccccc2)c2c(-c3ccccc3)[nH]c3ccccc23)nn1 (stereo not given) | 15.8 nM |  | 0.335% | 25.1 nM | 79% | 7.94 nM | 120% | 100 nM | 160% | 631 nM | 104% | 25.1 nM | 73% | 398 nM | Active | 31% |  |  | 
3 | O=[N+]([O-])CC(c1ccccc1)c1c(-c2ccccc2)[nH]c2ccccc12 (stereo not given) |  |  |  |  |  |  |  |  |  |  |  |  |  |  |  |  | inactive | > 10000 nM | Activity (Cannabinoid receptor 1 [16]): Active; Emax (Cannabinoid receptor 1 [2]; filed as positive allosteric modulator): 140%; Activity (Cannabinoid receptor 2 [17]): No effect; Emax (Cannabinoid receptor 1 [18]): 85%; Activity (Cannabinoid receptor 2 [20]): inactive; Activity (HepG2 [21]): inactive; Emax (Cannabinoid receptor 2 [22]): 98%; Emax (Cannabinoid receptor 2 [23]): 105%; Emax (Cannabinoid receptor 2 [9]): 29%; EC50 (Cannabinoid receptor 2 [24]): 170 nM; Activity (Cannabinoid receptor 1 [25]): Active; EC50 (Cannabinoid receptor 2 [26]): 0.06 nM; Activity (Cannabinoid receptor 2 [27]): Active
4 | Cc1c(Br)cc(C(=O)NC2CCCCCC2)c(=O)n1CCCCCn1cc(CCC(=O)NCC(c2ccccc2)c2c(-c3ccccc3)[nH]c3ccccc23)nn1 (stereo not given) | 63.1 nM | 42% | 1.3% | 20 nM | 58% |  | 120% |  | 80% | 2000 nM |  | 20 nM |  |  | Active |  |  |  | 
5 | Cc1c(Br)cc(C(=O)NC2CCCCCC2)c(=O)n1CCCCCn1cc(CCCCC(=O)NCC(c2ccccc2)c2c(-c3ccccc3)[nH]c3ccccc23)nn1 (stereo not given) | 126 nM |  | 35% | 126 nM |  |  | 83% |  | 201% | 6.31 nM |  | 1580 nM |  |  | Active | 31% | Active | 1000 nM | Activity (HepG2 [28]): Dose-dependent-effect; Activity (HepG2 [29]): Active; Activity (BEND3 [30]): Active; Emax (Cannabinoid receptor 1 [31]): 98%; Activity (BEND3 [32]): Active; Activity (BEND3 [33]): Active; Activity (HepG2 [34]): Active; viability at 30 µM [35]: > 75%; Activity (HepG2 [36]): Active
